Drawing on PubChem BioAssay (NCI), this text covers TGI and GI50 for 15 compounds.

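Interpolation was linear, between the two tested concentrations surrounding the appropriate level; five concentrations were tested over 48 hours in 96-well plates. GI50: concentration for 50% inhibition of growth. TGI: concentration producing complete growth inhibition.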 Where a SMILES comes first, the peptide text is derived from it. [ ]: non-standard residue; d: D form. The star is where a group is joined. Cbz = O=C(OCc1ccccc1)*; Boc = CC(C)(C)OC(=O)*; Aib = CC(C)(N)C(=O)O; OBn = c1ccc(CO*)cc1; OtBu = CC(C)(C)O*; βAla = NCCC(=O)O Some results are limits rather than exact numbers.

Test systems include HOP-62 NSCLC; LOX IMVI melanoma; OVCAR-4 ovarian; UO-31 renal; MCF7 breast; RXF 393 renal; SF-295 CNS; RPMI-8226 leukemia.
Common to all, as to assay: inhibition of tumour cell growth, NCI panel, 48 h

For `O=C(Nc1cccc(-c2cn3ccccc3n2)c1)c1ccncc1`, the TGI in the assay on HOP-62 NSCLC, with LOX IMVI melanoma, in the assay with OVCAR-4 ovarian, in the assay on UO-31 renal, in the assay on MCF7 breast and in the assay with RXF 393 renal was more than 100 µM in each case. In addition, the TGI with SF-295 CNS is more than 100 µM; in the assay on RPMI-8226 leukemia, 39.7 µM.

As to `O=C1C=CC(=O)c2ncccc21`, the TGI in the assay on HOP-62 NSCLC came out at 28.6 µM; in the assay with LOX IMVI melanoma, 6.32 µM; in the assay on OVCAR-4 ovarian, 11.4 µM; with UO-31 renal it was 9.03 µM; with MCF7 breast it was 25.8 µM; in the assay on RXF 393 renal, 12.8 µM. Moreover, the TGI in the assay on SF-295 CNS was 23.1 µM; in the assay with RPMI-8226 leukemia, more than 22 µM.

Consider `COC(=O)C1(C(=O)OC)N=C(C)OC1C(C)C` (stereo not drawn), for which the TGI in the assay on HOP-62 NSCLC, in the assay with LOX IMVI melanoma, with OVCAR-4 ovarian, in the assay with UO-31 renal, with MCF7 breast and in the assay with RXF 393 renal was more than 100 µM each time. Further, the TGI in the assay with SF-295 CNS and with RPMI-8226 leukemia was more than 100 µM in each case.

`CC(C)(C)OC(=O)N1C(OP(=O)(Oc2ccccc2)Oc2ccccc2)=COc2cccnc21`: the TGI is more than 100 µM in the assay with HOP-62 NSCLC; 85.3 µM in the assay on LOX IMVI melanoma; more than 100 µM with OVCAR-4 ovarian; more than 100 µM in the assay with UO-31 renal; more than 100 µM in the assay on MCF7 breast; more than 100 µM in the assay on RXF 393 renal. The TGI with SF-295 CNS was more than 100 µM; in the assay with RPMI-8226 leukemia, 53.2 µM.

Take `O=C1[C@@H]2Cc3c([nH]c4ccccc34)C(C3CCCCC3)N2C(=O)[C@@H]2CCCN12` (stereo partly drawn): the TGI is more than 100 µM in the assay with HOP-62 NSCLC; 73.9 µM in the assay on LOX IMVI melanoma; more than 100 µM in the assay with OVCAR-4 ovarian; more than 100 µM in the assay with UO-31 renal; more than 100 µM in the assay on MCF7 breast; more than 100 µM with RXF 393 renal. For the same compound, the TGI with SF-295 CNS was determined as 61.1 µM; with RPMI-8226 leukemia, 51 µM.

Turning to `COc1cc(/C=C2/SC(c3ccccc3)N(c3cccc([N+](=O)[O-])c3)C2=O)cc(OC)c1OC` (stereo not drawn), the TGI with HOP-62 NSCLC, in the assay on LOX IMVI melanoma, with OVCAR-4 ovarian, with UO-31 renal, in the assay with MCF7 breast and in the assay on RXF 393 renal was more than 100 µM in each case. The TGI in the assay on SF-295 CNS and in the assay with RPMI-8226 leukemia was more than 100 µM in each case.

In the case of `CCCCCCCCCCCCCCCCNc1nc(=O)n(C2CC(O)C(CO)O2)cc1F` (stereo not drawn), the TGI in the assay with HOP-62 NSCLC amounted to 20 µM; with LOX IMVI melanoma, 24.1 µM; in the assay with OVCAR-4 ovarian it was 40.4 µM; with UO-31 renal, 18.8 µM; in the assay on MCF7 breast, 19.9 µM; in the assay on RXF 393 renal, 28.4 µM. Further, the TGI came to 30.1 µM in the assay with SF-295 CNS and 37.6 µM in the assay with RPMI-8226 leukemia.

Turning to `CC(C)(C)OC(=O)CC(NC(=O)OC(C)(C)C)C(=O)NC(CCCCNC(=O)OCc1ccccc1)C(=O)NC(C)(C)C(=O)NCCC(=O)OCc1ccccc1` (stereo not drawn) (Boc-D(OtBu)K(Cbz)[Aib][βAla]-OBn; configuration not given here), the TGI in the assay with HOP-62 NSCLC, in the assay with LOX IMVI melanoma, in the assay with OVCAR-4 ovarian, in the assay with UO-31 renal, with MCF7 breast and with RXF 393 renal was more than 100 µM each time. The TGI in the assay on SF-295 CNS and in the assay with RPMI-8226 leukemia was more than 100 µM throughout.

Regarding `CCOP(=O)(OCC)C(Nc1ccc(F)cc1)c1cccc([N+](=O)[O-])c1` (stereo not drawn), the TGI in the assay with HOP-62 NSCLC, in the assay on LOX IMVI melanoma, in the assay on OVCAR-4 ovarian, with UO-31 renal, in the assay on MCF7 breast and in the assay on RXF 393 renal was more than 100 µM in each case. Further, the TGI with SF-295 CNS and in the assay with RPMI-8226 leukemia was more than 100 µM throughout.

In the case of `CC1(C)C2CC(c3ccncc3)ON2C(C)(C)N1O` (stereo not drawn), the TGI in the assay with HOP-62 NSCLC, in the assay on LOX IMVI melanoma, in the assay with OVCAR-4 ovarian, in the assay on UO-31 renal, with MCF7 breast and with RXF 393 renal was more than 100 µM in each case. Moreover, the TGI with SF-295 CNS and in the assay with RPMI-8226 leukemia was more than 100 µM in each case.

In the case of `O=C(/C=C/c1ccc([N+](=O)[O-])cc1)c1nc2ccccc2[nH]1`, the TGI in the assay with HOP-62 NSCLC, with LOX IMVI melanoma, with OVCAR-4 ovarian, in the assay with UO-31 renal, in the assay on MCF7 breast and with RXF 393 renal was more than 100 µM throughout. In addition, the TGI was more than 100 µM with SF-295 CNS and 33.3 µM with RPMI-8226 leukemia.

With `COC(=O)C(COC(=O)/C=C/c1ccc(OC(C)=O)c(OC(C)=O)c1)OC(=O)/C=C/c1ccc(OC(C)=O)c(OC(C)=O)c1` (stereo not drawn), the TGI in the assay with HOP-62 NSCLC was determined as 58.2 µM; in the assay with LOX IMVI melanoma, 23.4 µM; with OVCAR-4 ovarian it was 35.1 µM; in the assay on UO-31 renal it was 21.8 µM; in the assay on MCF7 breast, 21.8 µM; in the assay with RXF 393 renal, 25.8 µM. The TGI is 33.2 µM in the assay on SF-295 CNS and 66.4 µM in the assay on RPMI-8226 leukemia.

For `Cc1ccc2c(c1)OC1Nc3ccccc3C1=C2O` (stereo not drawn), the TGI is more than 100 µM in the assay on HOP-62 NSCLC; 71.5 µM with LOX IMVI melanoma; more than 100 µM in the assay on OVCAR-4 ovarian; 61.6 µM in the assay with UO-31 renal; 45.9 µM in the assay on MCF7 breast; 72.4 µM with RXF 393 renal. Further, the TGI in the assay with SF-295 CNS was 60 µM; in the assay on RPMI-8226 leukemia it was more than 100 µM.

In the case of `COc1cccc(-c2nc3sccn3c2-c2ccnc(NCCNC(=O)Nc3cccc(C(F)(F)F)c3)n2)c1`, the GI50 with HOP-62 NSCLC is 6.71 µM; with LOX IMVI melanoma, 4.11 µM; in the assay with OVCAR-4 ovarian it was 3.78 µM; in the assay with UO-31 renal, 2.88 µM; in the assay on MCF7 breast, 3.12 µM; in the assay on RXF 393 renal, 1.78 µM. Further, the GI50 with SF-295 CNS was 2.8 µM; in the assay with RPMI-8226 leukemia it was 1.92 µM. Further, the TGI in the assay with HOP-62 NSCLC was 42.4 µM; with LOX IMVI melanoma, more than 100 µM; in the assay on OVCAR-4 ovarian it was 34.1 µM; in the assay with UO-31 renal it was 24.8 µM; with MCF7 breast, 13.3 µM; in the assay on RXF 393 renal, 3.65 µM. The TGI is 14.9 µM in the assay with SF-295 CNS and 5.11 µM in the assay on RPMI-8226 leukemia.

On to `NC(N)=N/N=C/c1nc2sccn2c1[N+](=O)[O-]`, for which the TGI in the assay with HOP-62 NSCLC was more than 100 µM; in the assay on LOX IMVI melanoma, 56.1 µM; in the assay with OVCAR-4 ovarian it was 33.6 µM; in the assay on UO-31 renal, more than 100 µM; in the assay with MCF7 breast, 36.4 µM; with RXF 393 renal it was 36.9 µM. In addition, the TGI in the assay with SF-295 CNS and in the assay on RPMI-8226 leukemia was more than 100 µM in each case.
